One assay deals with T1, α1β3γ2S GABAA receptors (Homo sapiens, UniProt P14867+P28472).
T1 construct: expressed in transfected cells; host or cells: Xenopus laevis oocytes injected with cRNA (pCMV cDNA templates)
Nature of the assay: Two-microelectrode voltage clamp, IGABA modulation, α1β3γ2S. In kind it is cell-based. The note with it: for nH: Hill coefficient. As to the method: Preparation of stage V–VI oocytes from X. laevis and synthesis of capped runoff poly(A) cRNA transcripts from linearized cDNA templates (pCMV vector) was performed as previously described.[49] Female X. laevis frogs (Nasco) were anesthetized by 15 min incubation in a 0.2% MS-222 (methanesulfonate salt of 3-aminobenzoic acid ethyl ester; Sigma–Aldrich, Vienna, Austria) solution before removal of parts of the ovaries. Follicle membranes from isolated oocytes were enzymatically digested with 2 mg/mL collagenase (type 1A, Sigma–Aldrich, Vienna, Austria).
(§1) Selected oocytes were injected with 10–50 nL of DEPC-treated water (diethyl pyrocarbonate, Sigma, Vienna, Austria) containing the different GABAA cRNAs at a concentration of approximately 300–3000 pg·nL^–1·subunit^–1.
To ensure expression of the γ2S subunit in the case of α1/2/3/5β2/3γ2S receptors, cRNAs were mixed in a ratio of 1:1:10. For expression of receptors composed of α4β2γ2S and α1β1γ2S, cRNAS were mixed in a ratio of 3:1:10. The amount of cRNAs was determined by means of a NanoDrop ND-1000 (Kisker-Biotech, Steinfurt, Germany).
(§2) Oocytes were stored at +18 °C in modified ND96 solution (90 mM NaCl, 1 mM CaCl2, 1 mM KCl, 1 mM MgCl2·6H2O, and 5 mM HEPES [4-(2-hydroxyethyl)-1-piperazineethanesulfonic acid], pH 7.4, all from Sigma–Aldrich, Vienna, Austria).
Chloride currents through GABAA receptors (IGABA) were measured at room temperature (+21 ± 1 °C) by means of a two-microelectrode voltage clamp technique making use of a Turbo TEC-05X amplifier (npi electronic, Tamm, Germany). IGABA were elicited at a holding potential of –70 mV. Data acquisition was carried out by means of an Axon Digidata 1322A interface using pCLAMP v.10 (Molecular Devices, Sunnyvale, CA). The modified ND96 solution was used as bath solution. Microelectrodes were filled with 2 M KCl and had resistances between 1 and 3 MΩ.
GABA and the studied derivatives were applied by means of the ScreeningTool (npi electronic, Tamm, Germany) fast perfusion system as described previously.[50] To elicit IGABA, the chamber was perfused with 120 μL of GABA- or compound-containing solution at a volume rate of 300 μL/s.[34] Care was taken to account for possible slow recovery from increasing levels of desensitization in the presence of high drug concentrations. The duration of washout periods was therefore extended from 1.5 min (<10 μM compounds) to 30 min (≥10 μM compounds). […]
Stimulation of chloride currents by modulators of the GABAA receptor was measured at a GABA concentration eliciting between 3% and 7% of the maximal current amplitude (EC3–7). The GABA EC3–7 was determined for each oocyte individually. […] Statistical significance was calculated by paired Student t-test with a confidence interval of <0.05.

The next assay addresses T2, α4β2γ2S GABAA receptors (Homo sapiens, UniProt P47870+P48169).
T2 construct: expressed in transfected cells; host or cells: Xenopus laevis oocytes injected with cRNA (pCMV cDNA templates)
Nature of the assay: Two-microelectrode voltage clamp, IGABA modulation, α4β2γ2S. In kind it is cell-based. As to conditions: for nH: Hill coefficient. As to the method:
Preparation of stage V–VI oocytes from X. laevis and synthesis of capped runoff poly(A) cRNA transcripts from linearized cDNA templates (pCMV vector) was performed as previously described.[49] […] Follicle membranes from isolated oocytes were enzymatically digested with 2 mg/mL collagenase (type 1A, Sigma–Aldrich, Vienna, Austria).
as §1
To ensure expression of the γ2S subunit in the case of α1/2/3/5β2/3γ2S receptors, cRNAs were mixed in a ratio of 1:1:10. […] The amount of cRNAs was determined by means of a NanoDrop ND-1000 (Kisker-Biotech, Steinfurt, Germany).
as §2
Chloride currents through GABAA receptors (IGABA) were measured at room temperature (+21 ± 1 °C) by means of a two-microelectrode voltage clamp technique making use of a Turbo TEC-05X amplifier (npi electronic, Tamm, Germany). IGABA were elicited at a holding potential of –70 mV. Data acquisition was carried out by means of an Axon Digidata 1322A interface using pCLAMP v.10 (Molecular Devices, Sunnyvale, CA). The modified ND96 solution was used as bath solution.
GABA and the studied derivatives were applied by means of the ScreeningTool (npi electronic, Tamm, Germany) fast perfusion system as described previously.[50] To elicit IGABA, the chamber was perfused with 120 μL of GABA- or compound-containing solution at a volume rate of 300 μL/s.[34] Care was taken to account for possible slow recovery from increasing levels of desensitization in the presence of high drug concentrations. The duration of washout periods was therefore extended from 1.5 min (<10 μM compounds) to 30 min (≥10 μM compounds). Oocytes with maximal current amplitudes >3 μA were discarded to exclude voltage clamp errors.
Stimulation of chloride currents by modulators of the GABAA receptor was measured at a GABA concentration eliciting between 3% and 7% of the maximal current amplitude (EC3–7). The GABA EC3–7 was determined for each oocyte individually. Enhancement of the chloride current was defined as (IGABA+compd/IGABA) – 1, where IGABA+compd is the current response in the presence of a given compound and IGABA is the control GABA current. IGABA-max reflects the maximal IGABA enhancement. […] Statistical significance was calculated by paired Student t-test with a confidence interval of <0.05.

This is an account of results in paper PMC4106271 (Journal of Medicinal Chemistry, 2014).

T1 sequence (P14867 28-456): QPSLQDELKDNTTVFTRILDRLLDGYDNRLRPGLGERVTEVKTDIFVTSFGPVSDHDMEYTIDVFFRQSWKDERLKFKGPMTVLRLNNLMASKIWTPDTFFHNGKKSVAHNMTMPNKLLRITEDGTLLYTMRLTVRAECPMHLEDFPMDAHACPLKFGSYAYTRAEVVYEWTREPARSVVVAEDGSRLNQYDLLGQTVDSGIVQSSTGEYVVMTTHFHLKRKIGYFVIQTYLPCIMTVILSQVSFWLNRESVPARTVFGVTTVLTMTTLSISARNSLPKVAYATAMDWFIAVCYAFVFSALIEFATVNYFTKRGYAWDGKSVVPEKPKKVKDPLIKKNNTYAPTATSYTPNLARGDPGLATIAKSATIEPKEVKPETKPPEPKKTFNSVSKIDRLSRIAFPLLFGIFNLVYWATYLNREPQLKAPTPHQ
T1 sequence (P28472 26-473): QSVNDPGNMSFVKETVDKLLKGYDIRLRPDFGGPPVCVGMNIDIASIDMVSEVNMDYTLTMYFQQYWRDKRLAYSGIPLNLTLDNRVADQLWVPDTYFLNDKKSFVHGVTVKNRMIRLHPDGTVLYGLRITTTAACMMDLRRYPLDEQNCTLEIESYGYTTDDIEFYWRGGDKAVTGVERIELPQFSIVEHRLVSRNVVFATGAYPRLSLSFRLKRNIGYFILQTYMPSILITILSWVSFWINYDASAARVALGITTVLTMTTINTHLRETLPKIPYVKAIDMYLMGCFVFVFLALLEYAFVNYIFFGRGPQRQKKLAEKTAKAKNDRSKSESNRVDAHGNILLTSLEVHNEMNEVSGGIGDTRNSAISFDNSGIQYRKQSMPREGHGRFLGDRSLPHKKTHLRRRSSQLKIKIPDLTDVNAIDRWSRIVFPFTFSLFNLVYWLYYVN
T1 sequence (P18507 40-467 isoform P18507-1 partner limits assumed): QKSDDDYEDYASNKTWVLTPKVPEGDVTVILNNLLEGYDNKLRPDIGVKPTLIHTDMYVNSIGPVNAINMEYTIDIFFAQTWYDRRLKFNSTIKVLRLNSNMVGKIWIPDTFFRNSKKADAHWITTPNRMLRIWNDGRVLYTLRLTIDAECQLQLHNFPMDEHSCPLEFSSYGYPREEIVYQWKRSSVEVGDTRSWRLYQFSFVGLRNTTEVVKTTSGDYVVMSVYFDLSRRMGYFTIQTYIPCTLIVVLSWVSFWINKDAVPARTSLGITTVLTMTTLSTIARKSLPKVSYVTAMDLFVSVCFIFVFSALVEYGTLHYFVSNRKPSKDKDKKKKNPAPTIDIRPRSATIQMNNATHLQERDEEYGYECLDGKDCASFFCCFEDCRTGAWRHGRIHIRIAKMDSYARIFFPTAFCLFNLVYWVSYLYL
T2 sequence (P48169 36-554): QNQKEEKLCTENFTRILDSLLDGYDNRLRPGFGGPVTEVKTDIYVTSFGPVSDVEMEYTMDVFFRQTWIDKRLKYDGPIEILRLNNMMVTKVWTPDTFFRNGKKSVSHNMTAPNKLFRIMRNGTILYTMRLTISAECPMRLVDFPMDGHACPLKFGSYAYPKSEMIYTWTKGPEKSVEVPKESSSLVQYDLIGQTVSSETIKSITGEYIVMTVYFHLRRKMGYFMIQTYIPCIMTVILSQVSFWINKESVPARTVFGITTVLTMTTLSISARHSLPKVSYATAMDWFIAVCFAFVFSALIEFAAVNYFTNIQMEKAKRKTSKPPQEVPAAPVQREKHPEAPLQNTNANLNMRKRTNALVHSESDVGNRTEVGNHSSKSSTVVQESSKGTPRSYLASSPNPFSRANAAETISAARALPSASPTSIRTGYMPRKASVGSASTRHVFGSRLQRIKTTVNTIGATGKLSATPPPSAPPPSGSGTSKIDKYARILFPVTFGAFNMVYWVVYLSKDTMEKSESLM
T2 sequence (P47870 26-512): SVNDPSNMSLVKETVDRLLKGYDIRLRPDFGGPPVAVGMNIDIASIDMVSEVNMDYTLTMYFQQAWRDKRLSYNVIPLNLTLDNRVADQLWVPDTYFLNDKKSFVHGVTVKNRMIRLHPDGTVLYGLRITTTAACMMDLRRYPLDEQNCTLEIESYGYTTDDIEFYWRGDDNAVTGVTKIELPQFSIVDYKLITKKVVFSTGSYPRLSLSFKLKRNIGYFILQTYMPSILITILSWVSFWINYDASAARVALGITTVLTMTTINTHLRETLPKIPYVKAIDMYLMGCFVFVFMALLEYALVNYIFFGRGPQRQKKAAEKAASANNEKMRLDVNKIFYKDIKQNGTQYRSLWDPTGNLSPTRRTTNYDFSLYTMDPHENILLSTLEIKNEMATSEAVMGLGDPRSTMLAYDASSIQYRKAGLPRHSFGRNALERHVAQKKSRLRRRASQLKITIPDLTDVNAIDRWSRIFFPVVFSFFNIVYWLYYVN
T2 sequence (P18507 40-467 isoform P18507-1 partner limits assumed): as the sequence (P18507 40-467 isoform P18507-1 partner limits assumed) above

For orientation: EC50 means the concentration needed to bring the measured effect to its halfway point. Turning to `CCCCN(CCCC)C(=O)/C=C/C=C/c1ccc2c(c1)OCO2` [Compound 25, (2E,4E)-5-(1,3-Benzodioxol-5-yl)-N,N-dibutyl-2,4-pentadienamide], the results for the EC50 on α1β3γ2S GABAA receptors and at α4β2γ2S GABAA receptors were 29.5 ± 2.9 µM and 56.7 ± 21 µM, respectively. In addition, the results for the nH on α1β3γ2S GABAA receptors and on α4β2γ2S GABAA receptors were 1.5 ± 0.1 and 1.3 ± 0.3, respectively.

At α1β3γ2S GABAA receptors, `CCCN(CCC)C(=O)/C=C/C=C/c1ccc2c(c1)OCO2` [Compound 23, (2E,4E)-5-(1,3-benzodioxol-5-yl)-N,N-dipropyl-2,4-pentadienamide] gave an EC50 of 34.7 ± 5.7 µM and a nH of 1.9 ± 0.2. Besides, on α4β2γ2S GABAA receptors, the EC50 came to 34.7 ± 3.8 µM and the nH worked out at 1.7 ± 0.1.
